The NIST ThermoML archive (doi:10.1016/j.jct.2015.04.030)

Experiment: excess molar enthalpy (molar enthalpy of mixing); xn = mol fraction of the nth substance listed
Details: 100 kPa, Liquid, Calvet calorimetry

NCCNCCNCCN [1,2-ethanediamine, N,N'-bis(2-aminoethyl)-] + O
Details | excess molar enthalpy [kJ/mol]
303.15 K, x1 = 0.0497 | -2.81
303.15 K, x1 = 0.0697 | -3.72
303.15 K, x1 = 0.1129 | -5.24
303.15 K, x1 = 0.2006 | -6.56
303.15 K, x1 = 0.2478 | -6.79
303.15 K, x1 = 0.3031 | -6.71
303.15 K, x1 = 0.3527 | -6.48
303.15 K, x1 = 0.4038 | -5.87
303.15 K, x1 = 0.5069 | -4.8
303.15 K, x1 = 0.589 | -4.07
303.15 K, x1 = 0.701 | -2.97
323.15 K, x1 = 0.0496 | -2.65
323.15 K, x1 = 0.1103 | -5.02
323.15 K, x1 = 0.1998 | -6.03
323.15 K, x1 = 0.2469 | -6.26
323.15 K, x1 = 0.3041 | -6.25
323.15 K, x1 = 0.4041 | -5.53
323.15 K, x1 = 0.4995 | -4.66
323.15 K, x1 = 0.602 | -3.81
323.15 K, x1 = 0.7006 | -2.66

NCCOCCO [2-(2-aminoethoxy)ethanol] + O
Details | excess molar enthalpy [kJ/mol]
303.15 K, x1 = 0.0626 | -1
303.15 K, x1 = 0.1041 | -1.49
303.15 K, x1 = 0.1949 | -2.13
303.15 K, x1 = 0.3027 | -2.31
303.15 K, x1 = 0.3448 | -2.37
303.15 K, x1 = 0.398 | -2.33
303.15 K, x1 = 0.5045 | -2.02
303.15 K, x1 = 0.604 | -1.73
303.15 K, x1 = 0.7062 | -1.39
303.15 K, x1 = 0.8105 | -0.932
303.15 K, x1 = 0.9035 | -0.46
323.15 K, x1 = 0.0628 | -0.928
323.15 K, x1 = 0.1062 | -1.4
323.15 K, x1 = 0.1982 | -1.96
323.15 K, x1 = 0.3017 | -2.2
323.15 K, x1 = 0.342 | -2.25
323.15 K, x1 = 0.4004 | -2.2
323.15 K, x1 = 0.5053 | -2.02
323.15 K, x1 = 0.5967 | -1.75
323.15 K, x1 = 0.7043 | -1.38
323.15 K, x1 = 0.8037 | -0.938
323.15 K, x1 = 0.9032 | -0.449

CN(C)CCN(C)CCO [2-{[2-(dimethylamino)ethyl](methyl)amino}ethanol] + O
303.15 K
Details | excess molar enthalpy [kJ/mol]
x1 = 0.1012 | -2.91
x1 = 0.2028 | -3.61
x1 = 0.25 | -3.74
x1 = 0.3015 | -3.6
x1 = 0.4004 | -3.5
x1 = 0.4989 | -2.99

CN(C)CCCO [3-dimethylamino-1-propanol] + O
Details | excess molar enthalpy [kJ/mol]
303.15 K, x1 = 0.0505 | -1.06
303.15 K, x1 = 0.1027 | -1.83
303.15 K, x1 = 0.1998 | -2.51
303.15 K, x1 = 0.3003 | -2.86
303.15 K, x1 = 0.3515 | -2.88
303.15 K, x1 = 0.3975 | -2.89
303.15 K, x1 = 0.5019 | -2.71
303.15 K, x1 = 0.6483 | -2.1
303.15 K, x1 = 0.8001 | -1.26
303.15 K, x1 = 0.9452 | -0.398
323.15 K, x1 = 0.0495 | -0.958
323.15 K, x1 = 0.1003 | -1.46
323.15 K, x1 = 0.1782 | -2.03
323.15 K, x1 = 0.3006 | -2.46
323.15 K, x1 = 0.3485 | -2.5
323.15 K, x1 = 0.3981 | -2.51
323.15 K, x1 = 0.4977 | -2.38
323.15 K, x1 = 0.6455 | -1.83
323.15 K, x1 = 0.7962 | -1.13
323.15 K, x1 = 0.9446 | -0.311

CCN(CC)CCO [(diethylamino)ethanol] + O
Details | excess molar enthalpy [kJ/mol]
303.15 K, x1 = 0.0504 | -1.06
303.15 K, x1 = 0.1001 | -1.58
303.15 K, x1 = 0.2008 | -2.19
303.15 K, x1 = 0.301 | -2.54
303.15 K, x1 = 0.3688 | -2.59
303.15 K, x1 = 0.387 | -2.62
303.15 K, x1 = 0.4002 | -2.6
303.15 K, x1 = 0.4522 | -2.56
303.15 K, x1 = 0.5002 | -2.5
303.15 K, x1 = 0.5998 | -2.21
303.15 K, x1 = 0.7003 | -1.75
303.15 K, x1 = 0.8007 | -1.2
303.15 K, x1 = 0.901 | -0.602
323.15 K, x1 = 0.0502 | -0.802
323.15 K, x1 = 0.1009 | -1.24
323.15 K, x1 = 0.1951 | -1.7
323.15 K, x1 = 0.3002 | -2.02
323.15 K, x1 = 0.369 | -2.09
323.15 K, x1 = 0.4006 | -2.1
323.15 K, x1 = 0.5005 | -2
323.15 K, x1 = 0.6 | -1.76
323.15 K, x1 = 0.6191 | -1.61
323.15 K, x1 = 0.6997 | -1.43
323.15 K, x1 = 0.8005 | -1.05
323.15 K, x1 = 0.9006 | -0.501

CN(C)CCN(C)CCN(C)C [N,N,N',N'',N''-pentamethyldiethylenetriamine] + O
excess molar enthalpy [kJ/mol]
Details | 303.15 K | 323.15 K
x1 = 0.0486 | -2.68 | –
x1 = 0.0506 | – | -2.35
x1 = 0.099 | -3.97 | –
x1 = 0.1024 | – | -3.45
x1 = 0.15 | -4.3 | -3.8
x1 = 0.2 | – | -3.98
x1 = 0.2072 | -4.51 | –
x1 = 0.2492 | -4.39 | –
x1 = 0.25 | – | -3.88
x1 = 0.3 | -4.18 | –
x1 = 0.3062 | – | -3.63
x1 = 0.4001 | – | -3.22
x1 = 0.4063 | -3.52 | –
x1 = 0.4895 | -3.04 | –
x1 = 0.5005 | – | -2.58
x1 = 0.6001 | – | -2
x1 = 0.6117 | -2.25 | –

NCCNCCO [N-(2-aminoethyl)ethanolamine] + O
303.15 K
Details | excess molar enthalpy [kJ/mol]
x1 = 0.1031 | -2.32
x1 = 0.202 | -3.61
x1 = 0.3019 | -4.03
x1 = 0.3567 | -4.16
x1 = 0.4023 | -4.01
x1 = 0.4991 | -3.68
x1 = 0.5997 | -3.1
x1 = 0.7027 | -2.42

NCCCNCCCN [bis(3-aminopropyl)amine] + O
excess molar enthalpy [kJ/mol]
Details | 303.15 K | 323.15 K
x1 = 0.0507 | – | -2.43
x1 = 0.0508 | -2.6 | –
x1 = 0.1064 | – | -4.38
x1 = 0.1065 | -4.65 | –
x1 = 0.1991 | – | -6
x1 = 0.1993 | -6.35 | –
x1 = 0.3005 | -6.59 | -6.18
x1 = 0.4049 | -6.13 | –
x1 = 0.4057 | – | -5.61
x1 = 0.4998 | -5.54 | –
x1 = 0.5003 | – | -5.07
x1 = 0.602 | -4.58 | –
x1 = 0.6022 | – | -3.83
x1 = 0.6842 | -3.47 | -3.11
x1 = 0.8014 | – | -1.94
x1 = 0.8015 | -2.23 | –

NCCNCCN [di(2-aminoethyl)amine] + O
Details | excess molar enthalpy [kJ/mol]
303.15 K, x1 = 0.0509 | -2.27
303.15 K, x1 = 0.1001 | -4.1
303.15 K, x1 = 0.1544 | -5.56
303.15 K, x1 = 0.1962 | -6.2
303.15 K, x1 = 0.2416 | -6.52
303.15 K, x1 = 0.3018 | -6.65
303.15 K, x1 = 0.4026 | -6.36
303.15 K, x1 = 0.501 | -5.42
303.15 K, x1 = 0.6025 | -4.41
303.15 K, x1 = 0.702 | -3.39
303.15 K, x1 = 0.7984 | -2.38
323.15 K, x1 = 0.0503 | -2.11
323.15 K, x1 = 0.0989 | -3.81
323.15 K, x1 = 0.2028 | -5.88
323.15 K, x1 = 0.3003 | -6.31
323.15 K, x1 = 0.4044 | -5.78
323.15 K, x1 = 0.51 | -5.06
323.15 K, x1 = 0.6027 | -3.92
323.15 K, x1 = 0.7018 | -3.19
323.15 K, x1 = 0.7983 | -2.14

OCCNCCO [diethanolamine] + O
298.15 K
Details | excess molar enthalpy [kJ/mol]
x1 = 0.05035 | -0.546
x1 = 0.1001 | -1.11
x1 = 0.1989 | -1.71
x1 = 0.2023 | -1.74
x1 = 0.2958 | -2.03
x1 = 0.3428 | -2.07
x1 = 0.3974 | -2.05
x1 = 0.4915 | -1.95
x1 = 0.599 | -1.59
x1 = 0.7038 | -1.27
x1 = 0.795 | -0.932
x1 = 0.9029 | -0.414

OCCN(CCO)CCO [triethanolamine] + O
Details | excess molar enthalpy [kJ/mol]
303.15 K, x1 = 0.0473 | -0.534
303.15 K, x1 = 0.1013 | -0.929
303.15 K, x1 = 0.2063 | -1.29
303.15 K, x1 = 0.3064 | -1.4
303.15 K, x1 = 0.3548 | -1.4
303.15 K, x1 = 0.4076 | -1.37
303.15 K, x1 = 0.4902 | -1.22
303.15 K, x1 = 0.5783 | -1.12
303.15 K, x1 = 0.71 | -0.839
303.15 K, x1 = 0.7943 | -0.606
303.15 K, x1 = 0.8959 | -0.317
323.15 K, x1 = 0.0487 | -0.497
323.15 K, x1 = 0.1001 | -0.866
323.15 K, x1 = 0.2028 | -1.21
323.15 K, x1 = 0.3033 | -1.33
323.15 K, x1 = 0.3502 | -1.35
323.15 K, x1 = 0.4 | -1.33
323.15 K, x1 = 0.5021 | -1.17
323.15 K, x1 = 0.6021 | -1.04
323.15 K, x1 = 0.6989 | -0.829
323.15 K, x1 = 0.8006 | -0.586
323.15 K, x1 = 0.9009 | -0.284
